Results reported in a melting point compilation (Tetko et al.; mined from patent text by program, amines drawn as free bases though some values may be those of a salt).

melting point	Compound
73 to 74 °C	COc1ccc(CCC(=O)c2cccnc2Oc2ccc(F)cc2)cc1
138 to 139 °C	CCC(=O)Nc1cc(-c2c(-c3cccc(C)c3)nc3cccnn23)ccn1
108 °C	COC(=O)C(C)(C)OCc1cc2nc(Cl)ccc2n1S(=O)(=O)c1cccc2ccccc12
218 °C	O=c1c2ccc([N+](=O)[O-])cc2nc(CSc2ncnc3[nH]cnc23)n1-c1ccccc1Cl
120 to 123 °C	COc1ccc2c(c1)Sc1ccc(SC)cc1C(Cl)C2 (stereo not given)
268 to 270 °C	O=C(O)c1cn(C2CC2)c2c(F)c(N3CCC(n4cnnn4)C3)c(F)cc2c1=O (stereo not given)
82 to 83 °C	O=C1C(=O)c2ccc(Br)cc2C2=C1SCC1(CCN(CC(O)Cc3ccccc3)CC1)O2 (stereo not given)
230 to 234 °C	CCCc1nc2cc(Cl)c(S(N)(=O)=O)cc2[nH]1
128 to 129 °C	CC(C)(C)OC(=O)N1CC[C@H](c2ccc3c(c2)OCO3)[C@@H](OCc2ccc3ccccc3c2)C1 (racemic)
202 to 203 °C	CCc1nc2c(N)nc3cc(OCC(=O)c4ccsc4)ccc3c2s1
103 to 105 °C	COc1ccc(-c2cc(-c3ccc(-c4c(Cc5ccccc5)sc5ccccc45)cc3)cc(Br)c2OCC(=O)O)cc1OC
89 to 95 °C	CCCNC(=O)C(C)=Cc1ccc2c(c1)c(Cc1ccc(C(=O)O)cc1OC)cn2C
156 to 157 °C	CCCc1nc2c(N)nc3ccccc3c2n1CCC(=O)OCC
188 to 191 °C	CN1C(=O)CC[C@]2(C)c3ccc(Sc4ccc([N+](=O)[O-])cn4)cc3CC[C@@H]12
114 to 116 °C	COc1ccc(/C=C(\C#N)c2cccc(F)c2)cc1OC1CCCC1
224 to 226 °C	COc1ccc(NC(=O)NCc2ccc(-n3c(-c4cccnc4N)nc4cccnc43)cc2)cc1

melting point	Compound
128 to 130 °C	Cc1cc(C)c2cccc(OCc3c(Cl)ccc(S(=O)(=O)N4CCC[C@H]4C(=O)NCc4ccc(C=NN)cn4)c3Cl)c2n1
55 °C	COc1cc(CO)c(-c2cccc(OCCC(C)CCCC(C)C)c2)cc1CO (stereo not given)
96 to 102 °C	CC(C)c1nc(CCOC2=CCCCCCCCCCC2)n(C)c1Sc1cc(Cl)cc(Cl)c1
102 to 104 °C	CCOc1cc2ncc(C#N)c(Nc3ccc(OCc4ccccc4)c(Cl)c3)c2cc1NC(=O)CC(CN(C)C)N(C)C (stereo not given)
151 to 152 °C	COc1ccc(O)c(C2C(=O)N(Cc3ccc(C(F)(F)F)o3)c3cccc(Cl)c32)n1 (stereo not given)
200 to 202 °C	C[C@]1(N2C(=O)c3cccc(Nc4ccc5c(c4)CCC5)c3C2=O)CCC(=O)NC1=O
155 to 157 °C	O=C1CC2(CCCC2)CC(=O)N1CCCCc1ccncc1
> 60 °C	CCOC(=O)c1c(N2CCC(N(C)C)CC2)c2cc(C)ccc2n(Cc2ccccc2)c1=O
123 °C	Nc1cc2c(cc1Oc1ccc(F)cc1)CCC2
252 °C	C=CCn1c(=O)c2[nH]c(/C=C/c3ccc(OC)c(OC)c3)nc2n(CC=C)c1=O
193 to 195 °C	O=C(NC1CCCn2c1nc(-c1ccncc1)cc2=O)Oc1ccccc1 (racemic)
121 to 122 °C	O=C(O)c1cccc2c(=O)cc(-c3cccc(OCc4ccccc4)c3)oc12
40 to 42 °C	COc1cc(C=CC(=O)OC2CC3CC(OC(=O)c4cc(OC)c(OC)c(OC)c4)CC2N3C)cc(OC)c1OC (stereo not given)
288 to 290 °C	COc1cc2nc(N3CCc4c(ncnc4N4CCOCC4)C3)[nH]c(=O)c2cc1OC
127 to 129 °C	CC(=O)Oc1coc(-c2cccc(N)c2)cc1=O

Further lines, the molecule ahead of its results:

Compound	melting point
CNC(=O)C[C@@H]1N=C(c2ccc(Cl)cc2)c2c(sc(C)c2C)-n2c(C)nnc21	143 to 145 °C
COC1(OCC#Cc2ccc(Cl)nc2)C=CC=NC1 (stereo not given)	100 to 101 °C
CCCCn1c(C)c(C(=O)NC2CCN(CCc3ccccc3)CC2)c2cc(O)ccc21	178 to 181 °C
O=C(O)c1cn(-c2ccc(Br)cc2)c(-c2ccc(Cl)cc2Cl)n1	138 to 142 °C
COc1ccc2c(c1)N1CCOCC1CN=C2c1ccco1 (stereo not given)	130 to 132 °C
CCOC(=O)C1=CC2(CCC1S(=O)(=O)Nc1ccc(F)cc1Cl)OCCCO2 (stereo not given)	120 to 121 °C
CC(CCC(N)=S)N1C(=O)c2ccccc2C1=O (stereo not given)	143 to 146 °C
CCCC#CC[C@H](C[C@H](N)C(=O)O)C(=O)O	200 to 201 °C
COc1cccc(CC(NC(=O)CCl)c2ccccc2)c1 (stereo not given)	104 to 105 °C
CCc1ccc2c(c1)OC1(O)c3ccccc3C(=O)C21O (stereo not given)	168 to 169 °C
Cc1nc2n(n1)C(N)(c1ccccc1)c1cc(Cl)ccc1-2 (stereo not given)	173 to 175 °C
CO[Si]1(OC)CCCNCCN1	61 to 62 °C
CC(C)C[C@H](NC1CCOCC1)C(=O)O	> 300 °C
CC(C)(C)OC(=O)N1C(=O)[C@H](O)[C@@H]1c1ccccc1	132 °C
CC(=O)Nc1ccc(CCC2(c3ccccc3)CC(O)=CC(=O)O2)cc1 (stereo not given)	155 to 160 °C
CNc1nc(Br)cc(S(=O)(=O)c2ccc(N)cc2)n1	> 250 °C
COC(=O)c1cc(Br)c(O)c(O)c1Cl	103 °C
Cc1c2c(cn1C)NC(=O)C(O)N=C2c1ccccc1 (stereo not given)	243 °C
OC(c1cncs1)(c1cncs1)C(F)(F)F	109 to 110 °C
CCCCC(=O)Nc1c(C(=O)OC)cccc1[N+](=O)[O-]	61 to 62 °C

Compound	melting point
Cc1c(-c2ccc(OCc3ccccc3)cc2)n(Cc2ccc(OCCBr)cc2)c2ccc(OCc3ccccc3)cc12	131 to 134 °C
CCN(CC)c1ccc(N2C[C@H](CNC(=O)c3ccc(Cl)s3)OC2=O)cc1	181 °C
C[C@H](CN(O)C(N)=O)NC(=O)OC(C)(C)C	156 to 160 °C
CC(C)NCC(O)COc1ccc(CCSCC2CCC2)cc1 (stereo not given)	52 °C
CC1(C)CCC2(C(=O)O)CCC3(C)C(=CCC4C5(C)Cc6c(n[nH]c6N)C(C)(C)C5CCC43C)C2C1 (stereo not given)	263 to 266 °C
CC(C)Oc1c(C(=O)Nc2nnn[nH]2)[nH]c(Br)c1Br	194 to 196 °C
Cc1nccn1-c1cc(N)cc(C(F)(F)F)c1	127 to 131 °C
CCN(CC)C(=O)COc1ccc(C(O)(CC)c2cccc(C(F)(F)F)c2)cc1 (stereo not given)	83 to 84 °C
CCCc1c(C(C)C)cc(C(C)C)c(C(C)O)c1-c1ccc(F)cc1 (single isomer, unassigned; (+))	114 to 116 °C
CCn1cc(OS(C)(=O)=O)c(=O)c2ccccc21	141 to 143 °C
CCCS(=O)(=O)c1ncc(C(F)(F)F)cc1Cl	41 to 42 °C
CC(=O)N1C(C)(C)CC(O)CC1(C)C	102 to 104 °C
Cc1c(C2CCN(Cc3ccccc3)CC2)n[nH]c1-c1ccc(Cl)cc1	188 to 190 °C
Fc1cc(F)c2oc(CCC#Cc3ccccn3)nc2c1	93.5 to 94 °C
CS(=O)(=O)c1ccc(-c2oc(CCC(=O)O)nc2-c2ccc(F)cc2)cc1	197 to 198 °C
CN(C(=O)c1ccc(Cn2ncc3ccccc32)cc1)C1CCNCC1	146 to 148 °C
CCCC/C(=C\C=C\C(=O)O)c1ccc(OC)cc1	138 to 140 °C
OC(C1=NCC2CCCCN12)(c1ccccc1)c1ccccc1 (stereo not given)	131 to 133 °C
CC1(C)C=C(c2c[nH]c(-c3ccc(F)cc3)c2-c2ccncc2)CC(C)(C)N1	258 to 259 °C
